# Data as given in PubChem BioAssay (NCI).
#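 Cultured in 96-well plates, cells were exposed to test compound for 48 hours across five concentrations. TGI is the concentration that stops growth completely.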
# Legend:
# Assay in all cases: DTP human tumour cell line panel, 48 h
# [1] = test system: HCC-2998 colon
# [2] = test system: DMS 114 small cell lung
# [3] = test system: KM20L2 colon
# [4] = test system: DMS 273 small cell lung
# [5] = test system: OVCAR-5 ovarian
# [6] = test system: OVCAR-4 ovarian
# [7] = test system: K-562 leukemia
# [8] = test system: M19-MEL melanoma
# [9] = test system: IGROV1 ovarian
# [10] = test system: RXF-631 renal
# [11] = test system: OVCAR-8 ovarian
# [12] = test system: TK-10 renal
# [13] = test system: LXFL 529 NSCLC
# [14] = test system: 786-0 renal
# [15] = test system: SK-MEL-5 melanoma
# [16] = test system: SNB-19 CNS
# [17] = test system: NCI-H460 lung
# [18] = test system: KM12 colon
# [19] = test system: SF-539 CNS
# [20] = test system: RPMI-8226 leukemia
# [21] = test system: SNB-78 CNS
# [22] = test system: HCT-15 colon
# [23] = test system: NCI-H522 lung
# [24] = test system: A498 renal
# [25] = test system: M14 melanoma
# [26] = test system: COLO 205 colon
# [27] = test system: EKVX NSCLC
# [28] = test system: HOP-62 NSCLC
# [29] = test system: SF-268 CNS
# [30] = test system: LOX IMVI melanoma
# [31] = test system: SK-OV-3 ovarian
# [32] = test system: XF 498 CNS
# [33] = test system: SF-295 CNS
# [34] = test system: DLD-1 colon
# [35] = test system: NCI-H23 lung
# [36] = test system: UO-31 renal
# [37] = test system: UACC-62 melanoma
# [38] = test system: SK-MEL-2 melanoma
# [39] = test system: UACC-257 melanoma
# [40] = test system: ACHN renal
# [41] = test system: SNB-75 CNS
# [42] = test system: CCRF-CEM leukemia
# [43] = test system: HL-60(TB) leukemia
# [44] = test system: SN12C renal
# [45] = test system: U251 CNS
# [46] = test system: MALME-3M melanoma
# [47] = test system: SW-620 colon
# [48] = test system: HOP-92 NSCLC
# [49] = test system: A549 NSCLC
# [50] = test system: HOP-18 NSCLC
# [51] = test system: NCI-H226 lung
# [52] = test system: OVCAR-3 ovarian
# [53] = test system: MOLT-4 leukemia
# [54] = test system: CAKI-1 renal
# [55] = test system: SK-MEL-28 melanoma
# [56] = test system: RXF 393 renal
# [57] = test system: SR leukemia
# [58] = test system: HCT-116 colon
# [59] = test system: HT29 colon
structure (smiles),measurement,setting,value
CC(O)C(NC(=O)c1ccccc1)C(=O)N(Cc1ccccc1)Cc1ccccc1 (stereo not drawn),TGI,[1],> 100 µM
same,TGI,[2],> 100 µM
same,TGI,[3],> 100 µM
same,TGI,[4],> 100 µM
same,TGI,[5],> 100 µM
same,TGI,[6],> 100 µM
same,TGI,[7],> 100 µM
same,TGI,[8],> 100 µM
same,TGI,[9],> 100 µM
same,TGI,[10],> 100 µM
same,TGI,[11],> 100 µM
same,TGI,[12],> 100 µM
same,TGI,[13],> 100 µM
same,TGI,[14],> 100 µM
same,TGI,[15],> 100 µM
same,TGI,[16],> 100 µM
same,TGI,[17],> 100 µM
same,TGI,[18],> 100 µM
same,TGI,[19],> 100 µM
same,TGI,[20],> 100 µM
same,TGI,[21],> 100 µM
same,TGI,[22],> 100 µM
same,TGI,[23],26.5 µM
same,TGI,[24],> 100 µM
same,TGI,[25],> 100 µM
same,TGI,[26],> 100 µM
same,TGI,[27],> 100 µM
same,TGI,[28],> 100 µM
same,TGI,[29],> 100 µM
same,TGI,[30],> 100 µM
same,TGI,[31],> 100 µM
same,TGI,[32],> 100 µM
same,TGI,[33],> 100 µM
same,TGI,[34],> 100 µM
same,TGI,[35],> 100 µM
same,TGI,[36],> 100 µM
same,TGI,[37],> 100 µM
same,TGI,[38],> 100 µM
same,TGI,[39],> 100 µM
same,TGI,[40],> 100 µM
same,TGI,[41],> 100 µM
same,TGI,[42],> 100 µM
same,TGI,[43],> 100 µM
same,TGI,[44],> 100 µM
same,TGI,[45],> 100 µM
same,TGI,[46],> 100 µM
same,TGI,[47],> 100 µM
same,TGI,[48],> 100 µM
same,TGI,[49],> 100 µM
same,TGI,[50],> 100 µM
same,TGI,[51],> 100 µM
same,TGI,[52],> 100 µM
same,TGI,[53],> 100 µM
same,TGI,[54],49.9 µM
same,TGI,[55],> 100 µM
C[N+](C)(C)CC(=O)N/N=C(/Cc1nc2ccc([N+](=O)[O-])cc2[nH]c1=O)C(=O)Nc1cc(C(F)(F)F)ccc1Cl,TGI,[1],> 100 µM
same,TGI,[2],> 100 µM
same,TGI,[56],> 100 µM
same,TGI,[3],> 100 µM
same,TGI,[5],> 100 µM
same,TGI,[6],> 100 µM
same,TGI,[7],> 100 µM
same,TGI,[8],> 100 µM
same,TGI,[9],> 100 µM
same,TGI,[10],> 100 µM
same,TGI,[11],> 100 µM
same,TGI,[12],> 100 µM
same,TGI,[14],> 100 µM
same,TGI,[15],> 100 µM
same,TGI,[16],> 100 µM
same,TGI,[17],> 100 µM
same,TGI,[18],> 100 µM
same,TGI,[19],> 100 µM
same,TGI,[20],> 100 µM
same,TGI,[57],> 100 µM
same,TGI,[23],> 100 µM
same,TGI,[24],> 100 µM
same,TGI,[25],> 100 µM
same,TGI,[26],> 100 µM
same,TGI,[27],> 100 µM
same,TGI,[28],> 100 µM
same,TGI,[29],> 100 µM
same,TGI,[31],> 100 µM
same,TGI,[33],> 100 µM
same,TGI,[34],> 100 µM
same,TGI,[58],> 100 µM
same,TGI,[35],> 100 µM
same,TGI,[36],> 100 µM
same,TGI,[59],> 100 µM
same,TGI,[37],> 100 µM
same,TGI,[38],> 100 µM
same,TGI,[39],> 100 µM
same,TGI,[40],> 100 µM
same,TGI,[42],> 100 µM
same,TGI,[43],> 100 µM
same,TGI,[44],> 100 µM
same,TGI,[46],> 100 µM
same,TGI,[47],> 100 µM
same,TGI,[48],> 100 µM
same,TGI,[49],> 100 µM
same,TGI,[52],> 100 µM
same,TGI,[53],> 100 µM
same,TGI,[54],> 100 µM
same,TGI,[55],> 100 µM
COc1ccc(OC(C)C(=O)O)c2c1CCCC2=O (stereo not drawn),TGI,[1],> 100 µM
same,TGI,[2],> 100 µM
same,TGI,[56],> 100 µM
same,TGI,[3],> 100 µM
same,TGI,[4],> 100 µM
same,TGI,[5],> 100 µM
same,TGI,[6],> 100 µM
same,TGI,[7],> 100 µM
same,TGI,[8],> 100 µM
same,TGI,[9],> 100 µM
same,TGI,[11],> 100 µM
same,TGI,[12],> 100 µM
same,TGI,[13],> 100 µM
same,TGI,[14],> 100 µM
same,TGI,[15],> 100 µM
same,TGI,[16],> 100 µM
same,TGI,[17],> 100 µM
same,TGI,[18],> 100 µM
same,TGI,[19],> 100 µM
same,TGI,[20],> 100 µM
same,TGI,[21],> 100 µM
same,TGI,[22],> 100 µM
same,TGI,[57],> 100 µM
same,TGI,[23],> 100 µM
same,TGI,[24],> 100 µM
same,TGI,[25],> 100 µM
same,TGI,[26],> 100 µM
same,TGI,[27],> 100 µM
same,TGI,[28],> 100 µM
same,TGI,[29],> 100 µM
same,TGI,[30],> 100 µM
same,TGI,[31],> 100 µM
same,TGI,[32],> 100 µM
same,TGI,[33],> 100 µM
same,TGI,[34],> 100 µM
same,TGI,[58],> 100 µM
same,TGI,[35],> 100 µM
same,TGI,[36],> 100 µM
same,TGI,[59],> 100 µM
same,TGI,[37],> 100 µM
same,TGI,[38],> 100 µM
same,TGI,[39],> 100 µM
same,TGI,[40],> 100 µM
same,TGI,[41],> 100 µM
same,TGI,[42],> 100 µM
same,TGI,[43],> 100 µM
same,TGI,[44],> 100 µM
same,TGI,[45],> 100 µM
same,TGI,[46],> 100 µM
same,TGI,[47],> 100 µM
same,TGI,[49],> 100 µM
same,TGI,[51],> 100 µM
same,TGI,[52],> 100 µM
same,TGI,[53],> 100 µM
same,TGI,[55],> 100 µM
Nc1c(C(=O)NC23CC4CC(CC(C4)C2)C3)[n+]([O-])c2ccccc2[n+]1[O-],TGI,[1],> 100 µM
same,TGI,[3],> 100 µM
same,TGI,[4],> 100 µM
same,TGI,[5],> 100 µM
same,TGI,[6],> 100 µM
same,TGI,[7],> 100 µM
same,TGI,[8],> 100 µM
same,TGI,[9],> 100 µM
same,TGI,[11],> 100 µM
same,TGI,[12],> 100 µM
same,TGI,[13],> 100 µM
same,TGI,[14],> 100 µM
same,TGI,[15],> 100 µM
same,TGI,[16],> 100 µM
same,TGI,[17],> 100 µM
same,TGI,[18],> 100 µM
same,TGI,[19],> 100 µM
same,TGI,[20],> 100 µM
same,TGI,[21],> 100 µM
same,TGI,[22],> 100 µM
same,TGI,[23],> 100 µM
same,TGI,[24],> 100 µM
same,TGI,[25],> 100 µM
same,TGI,[26],> 100 µM
same,TGI,[27],> 100 µM
same,TGI,[28],> 100 µM
same,TGI,[29],> 100 µM
same,TGI,[30],> 100 µM
same,TGI,[31],> 100 µM
same,TGI,[32],> 100 µM
same,TGI,[33],> 100 µM
same,TGI,[34],> 100 µM
same,TGI,[35],> 100 µM
same,TGI,[36],> 100 µM
same,TGI,[59],> 100 µM
same,TGI,[37],> 100 µM
same,TGI,[38],> 100 µM
same,TGI,[39],> 100 µM
same,TGI,[40],> 100 µM
same,TGI,[41],> 100 µM
same,TGI,[42],> 100 µM
same,TGI,[43],> 100 µM
same,TGI,[44],> 100 µM
same,TGI,[45],> 100 µM
same,TGI,[46],> 100 µM
same,TGI,[47],> 100 µM
same,TGI,[48],> 100 µM
same,TGI,[49],> 100 µM
same,TGI,[50],> 100 µM
same,TGI,[51],> 100 µM
same,TGI,[52],> 100 µM
same,TGI,[53],> 100 µM
same,TGI,[54],> 100 µM
same,TGI,[55],> 100 µM
